The text below walks through data of PubChem BioAssay AID434987 (Southern Research Specialized Biocontainment Screening …, 2010).

Activity calls are given as the source filed them. No rule for the calls is given here.

The assay relates to M. tuberculosis H37Rv growth inhibition with meropenem. The assay is described as follows: dose response, H37Rv, with and without meropenem (AID 434987).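 Also: growth over 7 days at 37 °C before Alamar Blue read on day 9.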
[1] abbreviates: M. tuberculosis H37Rv growth inhibition, measured here: IC50 without meropenem.
Where [2] appears, read: M. tuberculosis H37Rv growth inhibition, measured here: IC90 without meropenem.
[3] abbreviates: measured here: IC90 with meropenem.

What is called IC50 is the point on the concentration scale where inhibition reaches its midpoint. In general, IC90 refers to the concentration at which the effect reaches the 90% level. The low end stands for greater potency, the high end for weaker potency.

For `N#C/C(C(=O)NCc1ccco1)=C1/SC=C(c2ccccc2)N1c1ccccc1`, the IC50 is > 100 µM (inactive). Also, the IC50 under setting [1] was > 100 µM. Also, the IC90 under setting [2] was > 100 µM. Besides, the concentration for an effect of 90% (IC90) under setting [3] is > 100 µM.

`COc1ccc(NC(=O)CSc2nc(N)c(C(=O)Nc3ccc(N(C)C)cc3)s2)cc1`: the IC50 was 22.8 µM. The IC50 under setting [1] was > 100 µM. The IC90 under setting [2] is > 100 µM. In addition, under setting [3], the concentration for an effect of 90% (IC90) was > 100 µM.

Consider `COc1ccc(OC)c(NC(=O)c2ccccc2SC)c1`, for which the IC50 is 19.8 µM. Besides, the 50% inhibitory concentration (IC50) under setting [1] was 83 µM. Besides, the IC90 under setting [2] was > 100 µM. Besides, the IC90 under setting [3] is > 100 µM.

In the case of `Cc1ccc(C(=O)c2oc3ccccc3c2NC(=O)c2cc(-c3cc(C)ccc3O)n[nH]2)cc1`, the IC50 is > 100 µM (inactive). Also, the IC50 under setting [1] was > 100 µM. Besides, the concentration for an effect of 90% (IC90) under setting [2] is > 100 µM. In addition, the IC90 under setting [3] is > 100 µM.

As to `CCOc1ccc2nc(SCC(=O)Nc3nonc3C)[nH]c2c1`, the IC50 is 32.8 µM. The IC50 under setting [1] is > 100 µM. Under setting [2], the IC90 is > 100 µM. Also, the IC90 under setting [3] was > 100 µM.

Turning to `Cc1ccsc1C(=O)NNC(=O)c1csc(N2CCOCC2)n1`, the IC50 is 62.7 µM (inactive). Moreover, the half-maximal inhibitory concentration (IC50) under setting [1] is > 100 µM. The IC90 under setting [2] was > 100 µM. Besides, under setting [3], the concentration for an effect of 90% (IC90) was > 100 µM.

Turning to `CC(=O)[C@@]1(O)CC[C@H]2[C@@H]3C[C@H](C)C4=CC(=O)CC[C@]4(C)[C@H]3CC[C@@]21C`, the IC50 was > 100 µM (inactive). The IC50 under setting [1] was > 100 µM. Moreover, the IC90 under setting [2] was > 100 µM. In addition, under setting [3], the IC90 was > 100 µM.

Consider `Cc1ccc(Cn2c(NC(=O)c3ccco3)nc3ccccc32)cc1`, for which the 50% inhibitory concentration (IC50) is 2.62 µM. The IC50 under setting [1] is > 100 µM. Also, the IC90 under setting [2] is > 100 µM. For the same compound, under setting [3], the 90% effect concentration (IC90) was > 100 µM.

Take `C[C@H]1C=CC(=O)O[C@H]1c1ccccc1`: the IC50 is 21 µM (inactive). Under setting [1], this compound came in with a concentration for half-maximal inhibition (IC50) of 43.7 µM. The 90% effect concentration (IC90) under setting [2] is 60.6 µM. The compound also yielded a 90% effect concentration (IC90) under setting [3] of 49.5 µM.

Consider `COc1ccc(OC)c(-c2cc(C(=O)Nc3c(C)n(C)n(-c4ccccc4)c3=O)no2)c1`, for which the half-maximal inhibitory concentration (IC50) was 17.1 µM. For the same compound, the IC50 under setting [1] stood at 54 µM. The IC90 under setting [2] is > 100 µM. This compound showed a 90% effect concentration (IC90) under setting [3] of 49.5 µM.

As to `CC(O)/C=C/c1ccc2ccccc2n1` (stereo not drawn), the IC50 is 27.7 µM (inactive). Besides, the IC50 under setting [1] turned out to be 53.9 µM. For the same compound, the 90% effect concentration (IC90) under setting [2] was > 100 µM. This compound displayed an IC90 under setting [3] of 57.5 µM.

As to `O=C(CCSc1nnc(-c2ccncc2)o1)Nc1ccccc1Cl`, the IC50 was > 100 µM (inactive). Further, the concentration for half-maximal inhibition (IC50) under setting [1] is > 100 µM. Moreover, under setting [2], the IC90 is > 100 µM. The IC90 under setting [3] was > 100 µM.

As to `CCCCNC(=O)c1onc(CSc2ccc(OC)cc2)c1C(=O)O`, the IC50 is 23.9 µM (inactive). Moreover, the IC50 under setting [1] came to 46.4 µM. The compound also returned a 90% effect concentration (IC90) under setting [2] of 53.1 µM. Under setting [3], this compound had an IC90 of 27.2 µM.

Regarding `O=C(C1=C[C@H](c2ccc(Br)cc2)C[C@H](OCc2ccc(CO)cc2)O1)N1CCN(Cc2ccc3c(c2)OCO3)CC1`, the IC50 is 50.4 µM (inactive). Also, the IC50 under setting [1] is > 100 µM. Also, the concentration for an effect of 90% (IC90) under setting [2] was > 100 µM. Further, under setting [3], the concentration for an effect of 90% (IC90) was > 100 µM.

In the case of `COc1cc(NC(=O)c2cccc(Cl)c2)c(OC)cc1NC(=O)CN1CCCCC1`, the IC50 is 7.42 µM. Further, under setting [1], the half-maximal inhibitory concentration (IC50) came to 23.7 µM. Under setting [2], this compound returned an IC90 of 61.4 µM. Moreover, the IC90 under setting [3] was 75.5 µM.

As for `COc1cccc(-c2nnn(CC(=O)Nc3cc(OC)c(NC(=O)c4ccco4)cc3OC)n2)c1`, the IC50 is 31.2 µM. Besides, the IC50 under setting [1] is > 100 µM. For the same compound, the concentration for an effect of 90% (IC90) under setting [2] is > 100 µM. Also, the IC90 under setting [3] was > 100 µM.

For `Cc1ccc(C(=O)Nc2ccc(N3CCN(C(=O)c4cccs4)CC3)cc2)c(Cl)c1`, the IC50 was > 100 µM (inactive). The concentration for half-maximal inhibition (IC50) under setting [1] was > 100 µM. The IC90 under setting [2] was > 100 µM. The 90% effect concentration (IC90) under setting [3] was > 100 µM.

For `CCOC(=O)Cn1c(=NC(=O)C2CC2)sc2c(C)cc(C)cc21`, the half-maximal inhibitory concentration (IC50) is 9.84 µM. The IC50 under setting [1] is > 100 µM. Moreover, the IC90 under setting [2] is > 100 µM. Also, under setting [3], the IC90 was > 100 µM.

With `CCCn1nc2cc(C(=O)NCCCCc3ccccc3)ccc2c1OCC`, the IC50 is 90.1 µM (inactive). The IC50 under setting [1] amounted to 92.3 µM. Further, under setting [2], the concentration for an effect of 90% (IC90) is > 100 µM. Further, the IC90 under setting [3] was > 100 µM.

Consider `CC1(C)CC(CCNC(=O)CCl)(c2ccccc2)CCO1` (stereo not drawn), for which the 50% inhibitory concentration (IC50) was 2.38 µM. The IC50 under setting [1] was 9.13 µM. The compound also showed an IC90 under setting [2] of 34.7 µM. Also, the concentration for an effect of 90% (IC90) under setting [3] is 8.14 µM.

For `Clc1ccc(/C=N/NC2=Nc3cccc4cccc2c34)cc1`, the IC50 was > 100 µM (inactive). Under setting [1], the half-maximal inhibitory concentration (IC50) was > 100 µM. Moreover, under setting [2], the IC90 was > 100 µM. In addition, under setting [3], the IC90 was > 100 µM.

For the compound `Cc1ccc(-n2ncc3c(=O)n(CC#N)cnc32)cc1C`, the IC50 was 20.9 µM. The same compound came in with an IC50 under setting [1] of 51.3 µM. Besides, under setting [2], the IC90 is > 100 µM. The concentration for an effect of 90% (IC90) under setting [3] was > 100 µM.
